How the values were obtained:
[1] = tested on: Bcl-xL; experiment: Western blot for NF-κB-regulated gene product Bcl-xL in U266 cells; assay type: cell-based, human; settings: curcumin 50 μM, time course
Experimental: (§1) Sixty micrograms of cytoplasmic extracts were resolved on 10% SDS-PAGE gel, electrotransferred on a nitrocellulose membrane, and probed for the following: IκBα (FIG. 4A); Bcl-2 (FIG. 4B); Bcl-xL (FIG. 4C) and cyclin D1 (FIG. 4D). The same blots were stripped and reprobed with anti-β-actin antibody to show equal protein loading (lower panel in each figure). FIG. 4E: […] U266, MM.1 or RPMI 8226 cells (1×10^7) were treated with curcumin ([…]) in 5 ml of medium for the indicated times. Supernatants were harvested and concentrated approximately 20×, and IL-6 was quantitated by an IL-6 ELISA kit. Values shown were normalized to 1 ml of un-concentrated supernatants. Thirty to fifty micrograms of cytoplasmic protein extracts prepared as described (Chaturvedi et al., 2000) were resolved on 10% SDS-PAGE gel. After electrophoresis, the proteins were electrotransferred to a nitrocellulose membrane, blocked with 5% nonfat milk, and probed with antibodies against either IkBa, phospho-IkBa, Bcl-2, Bcl-xL, or cyclin D1 (1:3000) for 1 h. Thereafter, the blot was washed, exposed to HRP-conjugated secondary antibodies for 1 h, and finally detected by chemiluminescence (ECL, Amersham Pharmacia Biotech., Arlington Heights, Ill.).

[2] = tested on: CD138+ cells from multiple myeloma patients; experiment: Viability of bone marrow CD138+ cells from multiple myeloma patients (MTT or trypan blue); assay type: cell-based, human; settings: 24 h
Experimental: Briefly, cells (5000/well) were incubated in triplicate in a 96-well plate in the presence or absence of indicated test samples in a final volume of 0.1 ml for 24 h at 37° C. Thereafter, 0.025 ml of MTT solution (5 mg/ml in PBS) was added to each well. After a 2 h incubation at 37 ° C., 0.1 ml of extraction buffer (20% SDS, 50% dimethylformamide) was added. Incubation was continued for overnight at 37 ° C., and then the OD at 590 nm was measured using a 96-well multiscanner autoreader (Dynatech MR 5000), with extraction buffer as blank. Percent cell viability=(OD of the experiment samples/OD of the control)×100.

[3] = target: T1, IκB kinase (Homo sapiens, UniProt O14920+O15111); experiment: In vitro kinase assay: IKK immunoprecipitated from untreated U266 cells, then treated with curcumin; assay type: biochemical; settings: curcumin 30 min, GST-IκBα substrate
T1 construct: 200 μg cytoplasmic extracts were immunoprecipitated with 1 μg of anti-IKKa and IKKb antibodies each; endogenous in cells; host or cells: U266 human multiple myeloma cells (cytoplasmic extract, immunoprecipitate on protein A/G-Sepharose)
T1 sequence (O15111 whole entry): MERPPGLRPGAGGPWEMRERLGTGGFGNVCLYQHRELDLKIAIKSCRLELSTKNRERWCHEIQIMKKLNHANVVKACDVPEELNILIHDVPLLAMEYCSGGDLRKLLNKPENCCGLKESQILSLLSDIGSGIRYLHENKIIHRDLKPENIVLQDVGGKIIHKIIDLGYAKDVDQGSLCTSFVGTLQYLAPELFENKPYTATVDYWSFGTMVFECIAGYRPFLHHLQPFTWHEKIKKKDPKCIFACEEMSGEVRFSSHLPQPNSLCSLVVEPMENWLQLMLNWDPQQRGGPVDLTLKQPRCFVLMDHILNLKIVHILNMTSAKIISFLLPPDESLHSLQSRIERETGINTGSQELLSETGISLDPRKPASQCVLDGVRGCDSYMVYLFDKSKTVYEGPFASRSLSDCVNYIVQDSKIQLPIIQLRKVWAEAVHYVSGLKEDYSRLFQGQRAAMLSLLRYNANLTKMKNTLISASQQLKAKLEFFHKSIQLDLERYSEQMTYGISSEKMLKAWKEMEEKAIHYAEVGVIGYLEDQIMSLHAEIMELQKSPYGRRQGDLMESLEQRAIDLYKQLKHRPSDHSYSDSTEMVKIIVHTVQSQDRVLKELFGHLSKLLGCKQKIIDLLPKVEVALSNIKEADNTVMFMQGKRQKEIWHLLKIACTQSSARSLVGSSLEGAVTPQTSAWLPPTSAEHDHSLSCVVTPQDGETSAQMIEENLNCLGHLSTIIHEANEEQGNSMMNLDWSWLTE
T1 sequence (O14920 whole entry): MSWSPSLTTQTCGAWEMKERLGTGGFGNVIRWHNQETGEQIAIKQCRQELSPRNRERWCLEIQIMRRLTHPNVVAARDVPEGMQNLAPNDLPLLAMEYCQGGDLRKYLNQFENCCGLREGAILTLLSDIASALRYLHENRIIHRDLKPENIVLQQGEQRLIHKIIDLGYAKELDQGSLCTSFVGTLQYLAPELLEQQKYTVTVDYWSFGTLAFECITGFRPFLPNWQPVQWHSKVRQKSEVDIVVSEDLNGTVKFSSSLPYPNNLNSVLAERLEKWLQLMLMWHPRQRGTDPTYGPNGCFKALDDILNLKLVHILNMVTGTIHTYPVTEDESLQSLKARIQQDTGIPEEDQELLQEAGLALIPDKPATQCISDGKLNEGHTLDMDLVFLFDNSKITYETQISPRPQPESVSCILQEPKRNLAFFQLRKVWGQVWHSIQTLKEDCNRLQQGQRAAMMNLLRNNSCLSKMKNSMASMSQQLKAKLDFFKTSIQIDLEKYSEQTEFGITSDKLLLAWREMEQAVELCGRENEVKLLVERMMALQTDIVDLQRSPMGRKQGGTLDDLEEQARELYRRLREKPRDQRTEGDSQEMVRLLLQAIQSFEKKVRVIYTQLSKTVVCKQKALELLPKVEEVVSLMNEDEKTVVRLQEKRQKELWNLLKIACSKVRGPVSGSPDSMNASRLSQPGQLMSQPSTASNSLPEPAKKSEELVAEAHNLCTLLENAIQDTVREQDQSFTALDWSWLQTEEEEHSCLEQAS
T1 sequence (Q9Y6K9 whole entry partner): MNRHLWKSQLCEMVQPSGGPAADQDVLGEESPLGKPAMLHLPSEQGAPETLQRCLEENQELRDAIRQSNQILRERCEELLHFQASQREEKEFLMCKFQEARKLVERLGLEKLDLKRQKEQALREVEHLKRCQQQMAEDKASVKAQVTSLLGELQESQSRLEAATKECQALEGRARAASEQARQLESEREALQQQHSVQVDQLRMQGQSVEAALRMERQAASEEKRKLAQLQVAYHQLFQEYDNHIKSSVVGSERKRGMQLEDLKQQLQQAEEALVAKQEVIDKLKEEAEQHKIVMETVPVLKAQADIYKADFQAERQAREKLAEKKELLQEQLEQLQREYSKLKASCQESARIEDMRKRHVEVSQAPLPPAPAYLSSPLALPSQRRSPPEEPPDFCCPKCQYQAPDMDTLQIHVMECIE
Experimental: Five million U266 cells/2.5 ml were treated with curcumin (50 μM) for the indicated times and cytoplasmic extracts were prepared. FIG. 3A: Level of phosphorylated IκBα determined by Western blotting. FIG. 3B: Immunoprecipitated IκB kinase and kinase assay of IκB kinase activity (upper panel) or Western blotting for the analysis of total IKKα and IKKβ proteins in cytoplasmic extracts (lower panel). FIG. 3C: IκB kinase was immunoprecipitated and kinase assay was performed in the absence or presence of the indicated concentrations of curcumin (upper panel). Lower panel indicates the amount of GST-IκBα protein stained with Coomassie Blue in each well in the same dried gel.
The IkB kinase assay was performed with a modified method as described earlier (Manna et al., 2000). Briefly, 200 μg cytoplasmic extracts were immunoprecipitated with 1 μg of anti-IKKa and IKKb antibodies each, and the immune complexes so formed were precipitated with 0.01 ml of protein A/G-Sepharose beads for 2 hour. The beads were washed first with lysis buffer and then with kinase assay buffer (50 mM HEPES pH 7.4, 20 mM MgCl2, and 2 mM DTT). The immune complex was then assayed for kinase activity using kinase assay buffer containing […] [g-P^32]ATP, 10 μM unlabeled ATP, and 2 μg/sample glutathione S-transferase-IkBa (1–54). […] Radioactive bands of the dried gel were visualized and quantitated by PhosphorImager. […]

[4] = tested on: MM.1; experiment: Growth of cells, viable cell count by trypan blue dye exclusion; assay type: cell-based; settings: Homo sapiens, Mm1; MM.1, curcumin 1 μM
Excerpt: (§2) The results are shown as the mean (±s. d.) cell count from triplicate cultures.

[5] = tested on: MM.1R; experiment: as above; assay type: cell-based; settings: Homo sapiens, curcumin 1 μM
Excerpt: as §2

[6] = tested on: U266; experiment: as above; assay type: cell-based; settings: Homo sapiens, U-266; U266, curcumin 1 μM
Excerpt: as §2

[7] = tested on: RPMI 8226; experiment: as above; assay type: cell-based; settings: Homo sapiens; RPMI 8226, curcumin 1 μM
Excerpt: as §2

[8] = tested on: IκBα; experiment: Western blot for NF-κB-regulated gene product IκBα in U266 cells; assay type: cell-based, human; settings: curcumin 50 μM, time course
Experimental: as §1

COc1cc(/C=C/C(=O)CC(=O)/C=C/c2ccc(O)c(OC)c2)ccc1O [curcumin, diferuloylmethane]
Bcl-xL protein level [1]: only a partial decline
cell survival ([2]; patient #20, indicated concentrations, MTT): much more effective in inhibiting the survival of multiple myeloma cells than dexamethasone
cell survival ([2]; patients #7, #9 and #10, different concentrations): decreased cell survival in a dose-dependent manner
direct inhibition of IκB kinase activity [3]: inhibited IκB kinase activity directly in a dose-dependent manner
inhibition at 1 µM [4]: 45%
inhibition at 1 µM [5]: 51%
inhibition at 1 µM [6]: 27%
inhibition at 1 µM [7]: 23%
IκBα protein level [8]: only a partial decline

— patent publication US7196105B2, “Treatment of human multiple myeloma by curcumin” (Research Development Foundation, priority 2002, dated 2007)
